Our source for the EC50 values is patent US20250340510A1, “Substituted Phenylbenzenesulfonamide Derivatives and Uses Thereof” (Nine Square Therapeutics Corporation, priority 2022, published 2025).

One test has as its system TFEB. Briefly: TFEB translocation assay in HeLa cells (nuclear to cytoplasmic TFEB ratio, high-content imaging). The note with it: Homo sapiens, 1.5 h, 90 mins incubation at 37° C., ratio of nuclear to cytoplasmic TFEB. Format: cell-based. On the procedure:
Example B2. TFEB Translocation Assay
Rabbit TFEB antibody, Cell Signaling Technology #4240S
PFA 16% MeOH-free, Election Microscopy Sciences #50-980-487
HCS CellMask Deep Red, ThermoFisher Scientific #H32721
Plates: Perkin Elmer Phenoplate #605730 black optically clear, tissue culture treated 384-well plate
Example B2.2 Method, Day 1: Cells Seeded in 384WP
Cells were seeded in the afternoon. The outer one row of the plate was not used to avoid outer well edge effects.
HeLa cells were detached using trypsin, and the cells were counted using a cell counter.
4000 HeLa cells were seeded per well in […] growth media (DMEM with 10% FBS, 1 mM sodium pyruvate and Pen-Strep).
Example B2.3 Method, Day 2: Assay with TRPML1 Compounds+Staining
Compounds were added to cells using a Tecan D300e dispenser.
Cells were incubated for 90 mins at 37° C. with the compounds (compound range: 80 nM-[…] (2× step dilution—8 dilution steps, 3 replicates per condition)
The cells were fixed by adding 16.5 μL of 16% PFA (4% final) and incubating for 15 min at room temperature.
The cells were washed with 3× in PBS-TX (PBS+0.1% Triton X-100)−1×100 μL followed by 2×50 μL.
The cells were blocked and permeabilized in 30 μL of blocking buffer (PBS-TX+5% goat serum) for 1 h.
The cells were incubated with TFEB antibody (1:200, CST 4240S) in 30 μL blocking buffer overnight at 4° C. The plates were kept damp to avoid evaporation.
Example B2.4 Method, Day 3: Staining+Imaging
The cells were washed 3× in PBS-TX—3×100 μL with a Biotek EL406 washer.
The cells were incubated with Goat anti-Rb Alexa-Fluor 488 (1:2000), cell mask (1:10,000) and Hoechst (1:10,000) in 30 μL blocking buffer for 1 h at room temperature. The solution was dispensed using a 5 μL peristaltic cassette (EL406).
The cells were washed 3× in PBS-TX—3×100 μL with a EL406 washer, then […] PBS was dispensed using a 5 μL peristaltic cassette (EL406).
The cells were imaged on an Operetta CLS High-content imaging system using a 20× water immersion objective (NA 1.0) the same day.
Image analysis was performed using Harmony V4.9 (Perkin Elmer). Briefly, nuclei were segmented from background-corrected images using Hoechst intensity, and cell body segmented using HCS CellMask DeepRed. A sliding parabola filter was applied to the AlexaFluor 488 channel (TFEB), before sum pixel intensity in the nuclear and cytoplasmic regions was calculated. A ratio of nuclear to cytoplasmic TFEB was used to define TFEB translocation from the cytosolic to nuclear compartment. The EC50 values derived by fitting the data to a sigmoidal dose response curve using Prism 9 (Graphpad).

The target in a further test is TRPML1 (Homo sapiens, UniProt Q9GZU1). Kind of test: Calcium flux in HEK293 overexpressing TRPML1 plasma membrane variant (FLIPR, Calcium 6 dye). The settings on record: HEK293/TRPML1-PM clone A5 cells; 4-parameter logistic fit; read-out: TRPML1 calcium flux (FLIPR) dose response: EC50. It is filed as cell-based. Summed up:
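HEK293 clone expressing plasma-membrane-targeted TRPML1 (N- and C-terminal dileucine motifs deleted), loaded with Calcium 6 dye for 2 h at 37 °C in HBSS/20 mM HEPES pH 7.4. Fluorescence recorded 10 s baseline then 170 s after compound addition. Max-minus-min response over baseline fitted by 4-parameter logistic for EC50.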
Background: Calcium flux is commonly read through the fluorescence of an indicator in the cells.

Sequence of TRPML1 (Q9GZU1 17-572 limits assumed): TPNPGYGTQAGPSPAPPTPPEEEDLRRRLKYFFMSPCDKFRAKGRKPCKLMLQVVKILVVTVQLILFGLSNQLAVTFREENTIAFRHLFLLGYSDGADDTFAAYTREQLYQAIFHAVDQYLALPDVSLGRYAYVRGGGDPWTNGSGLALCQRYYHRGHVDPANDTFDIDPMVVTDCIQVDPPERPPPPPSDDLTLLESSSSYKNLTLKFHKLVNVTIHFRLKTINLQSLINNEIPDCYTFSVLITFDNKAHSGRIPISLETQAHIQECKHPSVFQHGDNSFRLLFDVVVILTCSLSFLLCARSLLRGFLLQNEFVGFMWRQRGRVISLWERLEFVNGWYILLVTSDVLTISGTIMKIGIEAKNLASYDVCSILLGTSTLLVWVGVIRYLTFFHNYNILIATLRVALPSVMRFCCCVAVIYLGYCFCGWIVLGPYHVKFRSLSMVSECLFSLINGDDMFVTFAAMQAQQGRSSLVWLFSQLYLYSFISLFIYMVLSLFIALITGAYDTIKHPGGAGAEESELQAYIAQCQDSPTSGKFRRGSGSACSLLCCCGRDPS

The EC50 is the concentration giving half of the maximal effect. Regarding `CN(Cc1cncs1)c1ccccc1NS(=O)(=O)c1ccc(S(=O)(=O)N(C)C)cc1` [Compound 55, N1,N1-dimethyl-N4-(2-(methyl(thiazol-5-ylmethyl)amino)phenyl)benzene-1,4-disulfonamide], the EC50 in the test with TFEB (HeLa) turned out to be 870 nM; at TRPML1, 250 nM.
In the case of `CN(Cc1cscn1)c1c(Cl)cccc1NS(=O)(=O)c1ccc(S(=O)(=O)N(C)C)cc1` [Compound 64, N1-(3-chloro-2-(methyl(thiazol-4-ylmethyl)amino)phenyl)-N4,N4-dimethylbenzene-1,4-disulfonamide], the EC50 in the test on TFEB (HeLa) was found to be 1390 nM; on TRPML1 it was 453 nM.
For the molecule `CN(CC12CC(C)(C1)C2)c1ccccc1NS(=O)(=O)c1ccc(S(=O)(=O)N(C)C)cc1` [Compound 65, N1,N1-dimethyl-N4-(2-(methyl((3-methylbicyclo[1.1.1]pentan-1-yl)methyl)amino)phenyl)benzene-1,4-disulfonamide], the EC50 amounted to 396 nM with TFEB (HeLa) and 319 nM on TRPML1.
Regarding `CN(CC12CC(C1)C2)c1ccccc1NS(=O)(=O)c1ccc(S(=O)(=O)N(C)C)cc1` [Compound 66, N1-(2-((bicyclo[1.1.1]pentan-1-ylmethyl)(methyl)amino)phenyl)-N4,N4-dimethylbenzene-1,4-disulfonamide], the values for the EC50 with TFEB (HeLa) and on TRPML1 were 927 nM and 236 nM, respectively.
As to `CC(C)CCN(C)c1c(Cl)cccc1NS(=O)(=O)c1ccc(S(=O)(=O)N(C)C)cc1` [Compound 67, N1-(3-chloro-2-(isopentyl(methyl)amino)phenyl)-N4,N4-dimethylbenzene-1,4-disulfonamide], the results for the EC50 in the test on TFEB (HeLa) and at TRPML1 were 353 nM and 420 nM, respectively.
On the same counts, the results for `CN(Cc1cscn1)c1c(F)cccc1NS(=O)(=O)c1ccc(S(=O)(=O)N(C)C)cc1` [Compound 68, N1-(3-fluoro-2-(methyl(thiazol-4-ylmethyl)amino)phenyl)-N4,N4-dimethylbenzene-1,4-disulfonamide] are 2230 nM and 1030 nM.
For `CN(CC1CCC1)c1c(Cl)cccc1NS(=O)(=O)c1ccc(S(=O)(=O)N(C)C)cc1` [Compound 69, N1-(3-chloro-2-((cyclobutylmethyl)(methyl)amino)phenyl)-N4,N4-dimethylbenzene-1,4-disulfonamide] the same measures were 339 nM and 421 nM.
Turning to `CN(Cc1cncs1)c1c(F)cccc1NS(=O)(=O)c1ccc(S(=O)(=O)N(C)C)cc1` [Compound 70, N1-(3-Fluoro-2-(methyl(thiazol-5-ylmethyl)amino)phenyl)-N4,N4-dimethylbenzene-1,4-disulfonamide], the EC50 in the test with TFEB (HeLa) is 6960 nM; at TRPML1, 1340 nM.
Regarding `Cc1cccc(NS(=O)(=O)c2ccc(S(=O)(=O)N(C)C)cc2)c1N(C)Cc1cscn1` [Compound 71, N1,N1-dimethyl-N4-(3-methyl-2-(methyl(thiazol-4-ylmethyl)amino)phenyl)benzene-1,4-disulfonamide], the EC50 is 4040 nM in the test on TFEB (HeLa) and 818 nM on TRPML1.
On the same counts, the results for `Cc1cccc(NS(=O)(=O)c2ccc(S(=O)(=O)N(C)C)cc2)c1N(C)Cc1cncs1` [Compound 72, N1,N1-Dimethyl-N4-(3-methyl-2-(methyl(thiazol-5-ylmethyl)amino)phenyl)benzene-1,4-disulfonamide] are 1760 nM and 572 nM.
On the same counts, the results for `CN(Cc1cncs1)c1c(Cl)cccc1NS(=O)(=O)c1ccc(S(=O)(=O)N(C)C)cc1` [Compound 73, N1-(3-chloro-2-(methyl(thiazol-5-ylmethyl)amino)phenyl)-N4,N4-dimethylbenzene-1,4-disulfonamide] are 4850 nM and 996 nM.
Consider `CCCN(C)c1c(Cl)cccc1NS(=O)(=O)c1ccc(S(=O)(=O)N(C)C)cc1` [Compound 74, N1-(3-chloro-2-(methyl(propyl)amino)phenyl)-N4,N4-dimethylbenzene-1,4-disulfonamide], for which the EC50 in the test with TFEB (HeLa) turned out to be 676 nM; on TRPML1, 242 nM.
For `CC(C)CN(C)c1c(Cl)cccc1NS(=O)(=O)c1ccc(S(=O)(=O)N(C)C)cc1` [Compound 76, N1-(3-chloro-2-(isobutyl(methyl)amino)phenyl)-N4,N4-dimethylbenzene-1,4-disulfonamide] the same measures were 330 nM and 521 nM.
For `CCN(CC)c1c(Cl)cccc1NS(=O)(=O)c1ccc(S(=O)(=O)N(C)C)cc1` [Compound 77, N1-(3-chloro-2-(diethylamino)phenyl)-N4,N4-dimethylbenzene-1,4-disulfonamide] the same measures were 705 nM and 472 nM.
For `CCN(C)c1c(Cl)cccc1NS(=O)(=O)c1ccc(S(=O)(=O)N(C)C)cc1` [Compound 78, N1-(3-chloro-2-(ethyl(methyl)amino)phenyl)-N4,N4-dimethylbenzene-1,4-disulfonamide] the same measures were 1460 nM and 868 nM.
Regarding `CN(C)S(=O)(=O)c1ccc(S(=O)(=O)Nc2ccccc2N(CC(F)(F)F)C2CCCCC2)cc1` [Compound 81, N1-(2-(cyclohexyl(2,2,2-trifluoroethyl)amino)phenyl)-N4,N4-dimethylbenzene-1,4-disulfonamide], the EC50 was determined as 323 nM in the test on TFEB (HeLa) and 461 nM at TRPML1.
For `CN(C)S(=O)(=O)c1ccc(S(=O)(=O)Nc2ccccc2N(CC2COC2)C2CCCCC2)cc1` [Compound 84, N1-(2-(Cyclohexyl(oxetan-3-ylmethyl)amino)phenyl)-N4,N4-dimethylbenzene-1,4-disulfonamide] the same measures were 664 nM and 567 nM.
On the same counts, the results for `Cc1nc(CN(C)c2ccccc2NS(=O)(=O)c2ccc(S(=O)(=O)N(C)C)cc2)ccc1F` [Compound 85, N1-(2-(((5-fluoro-6-methylpyridin-2-yl)methyl)(methyl)amino)phenyl)-N4,N4-dimethylbenzene-1,4-disulfonamide] are 1000 nM and 447 nM.
For `CN(c1ccccc1NS(=O)(=O)c1ccc(S(=O)(=O)N(C)C)cc1)C1CCOC2(CCC2)C1` (centres unmarked) [Compound 87, N1,N1-dimethyl-N4-(2-(methyl(5-oxaspiro[3.5]nonan-8-yl)amino)phenyl)benzene-1,4-disulfonamide] the same measures were 674 nM and 823 nM.
With `CN(c1ccc(C#N)cc1NS(=O)(=O)c1ccc(S(=O)(=O)N(C)C)cc1)C1CCCCC1` [Compound 89, N1-(5-cyano-2-(cyclohexyl(methyl)amino)phenyl)-N4,N4-dimethylbenzene-1,4-disulfonamide], the EC50 is 2400 nM in the test with TFEB and 681 nM at TRPML1.
Turning to `CN(c1c(C#N)cccc1NS(=O)(=O)c1ccc(S(=O)(=O)N(C)C)cc1)C1CCCCC1` [Compound 91, N1-(3-cyano-2-(cyclohexyl(methyl)amino)phenyl)-N4,N4-dimethylbenzene-1,4-disulfonamide], the EC50 in the test on TFEB (HeLa) is 199 nM; at TRPML1, 77.2 nM.
Take `CN(CC1(F)CCCC1)c1ccccc1NS(=O)(=O)c1ccc(S(=O)(=O)N(C)C)cc1` [Compound 93, N1-(2-(((1-fluorocyclopentyl)methyl)(methyl)amino)phenyl)-N4,N4-dimethylbenzene-1,4-disulfonamide]: the figures for the EC50 in the test with TFEB (HeLa) and at TRPML1 were 649 nM and 857 nM, respectively.
